US6555559B1, “5,6,7-trinor-4,8-inter-m-phenylene PGI2, derivative and drugs containing the same” (Toray Industries, Inc., priority 1998, dated 2003)
≈ marks a conversion by molar mass, not a printed value.

Legend:
Type in all cases: cell-based
[1] = tested on: Helicobacter pylori (three strains of ATCC43504, ATCC43526, and TK1402); assay: Antibacterial activity on Helicobacter pylori, disk method, lethal concentration (LC); conditions: culture 4 days
Description: A blank disk (produced by Beckton Deckinson Co.,) was placed in a brain heart infusion agar medium containing 7% horse blood and coated with Helicobacter pylori (three strains of ATCC43504, ATCC43526, and TK1402). The disk was soaked with 10 μl of a solution of a test compound in dimethylsulfoxide, and then cultured under microaerophilic conditions including 5% of O2, 10% of CO2 and 85% of N2 at 37° C. for 4 days. After the completion of culture, the diameter of a growth inhibition circle formed around the disk was measured, and the lethal concentration (LC) of each test compound was computed according to the computation expression of Hultmark et al. (The EMBO Journal, 2, 571-576, 1983).

[2] = tested on: human platelet aggregation; assay: Effect on human platelet aggregation (ADP-induced, in the presence of SQ-29548); conditions: human PRP, SQ-29548 added, aggregation induced with ADP, compound 10 μM; control 38 ± 4.9
Description: The blood collected from healthy persons was centrifuged to separate platelet-rich plasma (PRP) and platelet-poor plasma (PPP). […] Experiment was carried out for 3 examples per group.

[3] = tested on: Helicobacter pylori (2 ATCC strains and 25 clinical isolates); assay: Antibacterial activity on Helicobacter pylori, agar dilution MIC, 27 strains; conditions: for Growth inhibition rate: share of 27 strains inhibited
Description: As test strains, 2 commercial ATCC strains ([…] and TACC43526 strain) of Helicobacter pylori, and 25 clinical isolates were used. Each of the strains was inoculated into a brain heart infusion agar medium containing 7% horse blood, and cultured under microaerophilic conditions including 5% of O2, 10% of CO2 and 85% of N2 at 37° C. After culture for 3 to 4 days, colonies of each strain formed on the medium were collected, and suspended in a brain heart infusion medium containing 10% of fetal calf serum so that turbidity was McFarland No. 1 (the number of bacteria was about 3×10^8/ml) to form a test bacterial suspension. On the other hand, a test compound (compound 4) was dissolved in dimethylsulfoxide, and a diluent in a double dilution series was prepared with dimethylsulfoxide so that the final concentration of the solvent was 0.5%, to form a test drug solution. 100 μl of the test drug solution was mixed with 20 ml of a brain heart infusion agar medium containing 7% horse blood and about 45° C., and the resultant mixture was solidified by allowing to cool to form a test medium. Next, about 5 μl of test bacterial suspension was inoculated into the medium by using a micro planter, and then cultured under microaerophilic conditions including 5% of O2, 10% of CO2 and 85% of N2 at 37° C. for 4 days. […] The minimum concentration at which growth of 50% of the total 27 stains used in the test was inhibited was MIC50, and the minimum concentration at which growth of 90% the strains used was inhibited was MIC90.

In the case of `COC(=O)CCc1cccc2c1OC1CC(OC(C)=O)C(C=C(F)C(=O)C(C)(C)Oc3ccccc3)C21` (stereo not drawn) [Example 1, 14-Fluoro-16-methyl-15-oxo-16-phenoxy-2,5,6,7,18,19,20-heptanor-4,8-inter-m-phenylene PGI2 Methyl Ester, 11-Acetate], the “Antibacterial activity (lethal concentration LC)” value (“Antibacterial activity” below) ([1]; Helicobacter pylori strain ATCC43504) is reported as 141 ± 27 µM, the “Antibacterial activity” value ([1]; Helicobacter pylori strain ATCC43526) is reported as 169 ± 6 µM and the “Antibacterial activity” value ([1]; Helicobacter pylori strain TK1402) is reported as 151 ± 4 µM.
`CC(C)(Oc1ccccc1)C(O)C(F)=CC1C(O)CC2Oc3c(CCC(=O)O)cccc3C21` (stereo not drawn) [Example 3, 14-Fluoro-16-methyl-16-phenoxy-2,5,6,7,18,19,20-heptanor-4,8-inter-m-phenylene PGI2] was tested, and the Platelet aggregation [2] was 54 ± 1.7%.
With `CC(C)(Oc1ccccc1)C(O)C(F)=CC1C(O)CC2Oc3c(CCC(=O)O)cccc3C21` (stereo not drawn) [Example 4, 14-Fluoro-16-methyl-16-phenoxy-15-epi-2,5,6,7,18,19,20-heptanor-4,8-inter-m-phenylene PGI2] the “Number of strains inhibited/total strains” value ([3]; concentration 12.5 μM) was 11/27, the Growth inhibition rate ([3]; concentration 12.5 μM) was 40.7% and the “Number of strains inhibited/total strains” value ([3]; concentration 25 μM) was 20/27. For the same compound, the Growth inhibition rate ([3]; concentration 25 μM) was 74.1%, the “Number of strains inhibited/total strains” value ([3]; concentration 50 μM) was 26/27 and the Growth inhibition rate ([3]; concentration 50 μM) was 96.3%. It also gave an MIC50 ([3]; minimum concentration inhibiting growth of 50% of the total 27 strains) of 12.5 µM (≈ 5.71 µg/mL) and an MIC90 ([3]; minimum concentration inhibiting growth of 90% of the total 27 strains) of 50 µM (≈ 22.8 µg/mL).
